Test results from patent US11458138B2 (Novartis AG, priority 2017, dated 2022).

Key:
limbal stem cells (LSCs) = assay: Differentiation of expanded LSCs into corneal epithelium cells (p63alpha / keratin 12); type: cell-based, human; details: transferred to conditions that enable differentiation
Description: Shown are views where the transition from the p63alpha-positive cell identity to the keratin-12 identity are occurring.
These characteristics can be observed by immunohistochemistry or FACS.

[1] = system: corneal endothelium cell population; assay: FACS analysis of expanded corneal endothelium cell population (CD73, CD44, CD166, CD105); type: cell-based, human; details: vs CECs cultured without LATS inhibitor (high levels)
Description: FIG. 21: FACS analysis of the corneal endothlelium cell population expanded in the presence of the LATS inhibitor, compound ex. 47, and CECs cultured in the absence of a LATS inhibitor. The cell population expanded in the presence of the LATS inhibitor expresses low levels of CD73 (FIG. 21a, grey line), CD44 (FIG. 21b, grey line), CD166 (FIG. 21c, grey line) and CD105 (FIG. 21d, grey line); while the cell population cultured without the LATS inhibitor expresses high levels of CD44, CD73, CD105 and CD166 (black lines).
(4) The cells express relatively low levels of CD73. The relative expression levels are lower than cells which have undergone endothelial to mesenchymal transition. The expression of CD73 may be estimated by standard techniques known in the art, such as for example FACS analysis or immunohistochemistry.

LATS1 = LATS1 (Homo sapiens (Human), UniProt O95835); assay: LATS1 biochemical assay (Table 1A, Compound Examples 1-290; method in the earlier part)
Chain of LATS1 (O95835 whole entry, looked up): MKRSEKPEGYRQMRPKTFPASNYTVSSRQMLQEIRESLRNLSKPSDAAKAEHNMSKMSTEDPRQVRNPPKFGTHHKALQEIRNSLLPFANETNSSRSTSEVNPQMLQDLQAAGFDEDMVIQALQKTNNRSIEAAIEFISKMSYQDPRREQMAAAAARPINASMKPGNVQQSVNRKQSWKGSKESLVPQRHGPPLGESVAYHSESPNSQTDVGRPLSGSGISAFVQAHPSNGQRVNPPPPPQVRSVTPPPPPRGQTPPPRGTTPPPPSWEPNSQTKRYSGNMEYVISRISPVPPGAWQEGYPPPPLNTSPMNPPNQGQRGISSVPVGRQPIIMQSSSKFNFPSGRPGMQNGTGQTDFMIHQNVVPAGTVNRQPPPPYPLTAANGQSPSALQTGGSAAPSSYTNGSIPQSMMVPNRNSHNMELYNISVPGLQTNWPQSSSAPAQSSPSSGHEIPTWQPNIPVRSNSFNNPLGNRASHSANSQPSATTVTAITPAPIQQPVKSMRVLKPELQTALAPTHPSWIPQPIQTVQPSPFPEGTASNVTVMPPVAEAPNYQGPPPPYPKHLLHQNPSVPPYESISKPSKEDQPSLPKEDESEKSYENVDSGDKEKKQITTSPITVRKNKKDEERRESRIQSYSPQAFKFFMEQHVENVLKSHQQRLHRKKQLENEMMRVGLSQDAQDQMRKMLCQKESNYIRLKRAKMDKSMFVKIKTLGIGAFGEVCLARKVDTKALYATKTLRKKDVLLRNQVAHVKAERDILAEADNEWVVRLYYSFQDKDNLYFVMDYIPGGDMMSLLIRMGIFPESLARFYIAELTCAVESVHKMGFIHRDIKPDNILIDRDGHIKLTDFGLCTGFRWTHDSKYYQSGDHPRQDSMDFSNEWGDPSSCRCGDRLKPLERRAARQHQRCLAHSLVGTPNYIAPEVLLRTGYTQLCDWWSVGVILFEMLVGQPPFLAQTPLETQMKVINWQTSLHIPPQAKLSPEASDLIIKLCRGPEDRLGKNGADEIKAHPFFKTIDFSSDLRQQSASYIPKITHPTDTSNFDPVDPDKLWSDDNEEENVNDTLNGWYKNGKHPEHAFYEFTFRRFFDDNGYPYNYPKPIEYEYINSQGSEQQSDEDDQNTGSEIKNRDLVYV
Chain of LATS1 (Q7L9L4 whole entry partner, looked up): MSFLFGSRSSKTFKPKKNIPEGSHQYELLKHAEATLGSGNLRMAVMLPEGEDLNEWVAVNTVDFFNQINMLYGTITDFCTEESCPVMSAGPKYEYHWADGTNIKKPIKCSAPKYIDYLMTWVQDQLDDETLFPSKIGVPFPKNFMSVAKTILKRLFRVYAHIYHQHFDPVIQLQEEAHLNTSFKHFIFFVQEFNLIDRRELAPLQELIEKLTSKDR

[2] = system: Ki67-positive hepatocytes; assay: In vivo treatment of mice: immunohistochemistry (IHC) for Ki67 in liver; details: mouse liver, single oral dose 30 mg/kg, 24 h post-dose, relative to vehicle, mean+/-SEM
Description: (§1) All animal studies were carried out in accordance with federal, state, local and institutional guidelines governing the use of laboratory animals in research. Male C57BL/6J mice (age 8-10 weeks) were purchased from Jackson Labs (Bar Harbor, Me.). Example 46 was formulated for oral dosing at 3 mg/ml, and Example 261 at 1 mg/ml, in a suspension of methylcellulose:Tween80:Water (0.5:0.5:99). Single oral dose of either compound was at 10 mL/kg body weight. Blood and liver tissue were collected under deep anesthesia (isoflurane) at either 2 h post-dose (for mRNA analysis) or 24 h post-dose (for immunohistochemistry).
Liver tissue was fixed in 10% neutral buffered formalin for 24-48 h. Processing and embedding in paraffin was by standard procedures. Sections were cut at 5 microns thickness and stained using a Ventana automated system. Primary antibody for mouse Ki67 was a rabbit IgG (Bethyl Labs). Ki67-positive hepatocytes were quantified by image analysis using the HALO platform. At least 3 sections per animal were analyzed, from the middle of the medial lobe.

[3] = system: Phospho-YAP (SER127) in liver tissue; assay: In vivo treatment of mice: Phospho-YAP (pYAP) HTRF in liver tissue; details: mouse liver, single oral dose 30 mg/kg
Description: as §1
Frozen liver tissue was transferred into a Lysing Matrix tube (MP, cat #6913-500) with a 1:50 solution of Protease inhibitor (Sigma-Aldrich, cat #P8340) in Phosphosafe extraction buffer (Novagen, cat #71296-3) and homogenized using the FastPrep-24 (MP biomedicals). […] The protein concentration was measured using the BCA Protein Assay Kit (Pierce cat. 23227) following the manufacturer's protocol. […] The same input quantity was used for each sample, based on total protein content (30-60 ug per sample per well). […] Plates were read on an EnVision (PerkinElmer) with emission wavelengths of 665 nm & 620 nm. The HTRF signal ratio was calculated as Signal(665 nm)/Signal(620 nm))×10000 as specified in the manufacturer's protocol. […]

Cyr61 mRNA in liver = assay: In vivo treatment of mice: quantitative RT-PCR, Cyr61; details: mouse liver, single oral dose 30 mg/kg, 2 h post-dose, relative to vehicle, mean+/-SEM
Description: as §1
(§2) Total liver RNA was isolated from tissue after storage in RNAlater reagent (Qiagen), using a TRIzol method according to the manufacturer's instructions (Life Technologies). Relative mRNA abundance was measured by quantitative RT-PCR using TaqMan gene expression assays and reagents according to standard protocols (Applied Biosystems). Mouse probes for YAP target genes were CTGF (Mm01192933_g1) and Cyr61 (Mm00487498_m1). […] Relative changes in mRNA were calculated by the ΔΔCt method. Changes in gene expression with compound treatment are expressed as fold-change relative to the vehicle group.

[4] = system: YAP nuclear translocation in HaCaT cells; assay: YAP Translocation Assay (HaCaT Cells); type: cell-based, human; details: Homo sapiens, 24 hours
In short: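 HaCaT cells (20,000/well) in DMEM + 10% FBS were plated overnight at 37° C, then exposed to compound for 24 h at 37° C. Cells were fixed with PFA, permeabilized with 0.1% Triton/1.5% BSA and imaged by high-content imaging.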

CTGF mRNA in liver = assay: In vivo treatment of mice: quantitative RT-PCR, CTGF; details: mouse liver, single oral dose 30 mg/kg, 2 h post-dose, relative to vehicle, mean+/-SEM
Description: as §1, §2

SMILES: CC(N(C)c1nc(-c2ccncc2)nc2cnccc12)C(F)(F)F (racemic) [Example 47, N-methyl-2-(pyridin-4-yl)-N-(1,1,1-trifluoropropan-2-yl)pyrido[3,4-d]pyrimidin-4-amine]
- differentiation of expanded LSCs into corneal epithelium cells (keratin 12) (limbal stem cells (LSCs)): can differentiate into corneal epithelium cells
- expression of CD73, CD44, CD166 and CD105 by FACS [1]: low levels

SMILES: c1cc(-c2nc(NCCCc3nnn[nH]3)c3ccncc3n2)ccn1 [Example 46, 2-(pyridin-4-yl)-N-[3-(1H-1,2,3,4-tetrazol-5-yl)propyl]pyrido[3,4-d]pyrimidin-4-amine]
- IC50 (LATS1): > 2.5 µM
- Ki67 IHC (fold-change) [2]: 3.3 (+/−0.2) fold-change
- pYAP (% of control) [3]: 64 % of control
- Cyr61 mRNA (fold-change) (Cyr61 mRNA in liver): 3.5 (+/−0.5) fold-change
- EC50 [4]: > 20 µM
- CTGF mRNA (fold-change) (CTGF mRNA in liver): 2.1 (+/−0.4) fold-change
